# Reference: ChEMBL document CHEMBL1148664, “Synthesis and biological evaluation of rhodanine derivatives as PRL-3 inhibitors” (Bioorg Med Chem Lett, 2006)
# The source made the active and inactive calls. The rule behind the calls is not given here.
# Test system: B16-F10
# Test: Ability to reduce the invasiveness of tumor in B16F10 cells
# Type: functional, cell-based
# Conditions: Mus musculus
row,Compound,Activity
1,O=C1NC(=S)S/C1=C\c1cc(Br)ccc1OCc1ccccc1Br,Active
2,O=C1NC(=S)S/C1=C\c1cc2ccccc2cc1OCc1c(F)cccc1Cl,Active

# Target: T1, Protein tyrosine phosphatase type IVA 3 (Homo sapiens, UniProt O75365)
# Test: Inhibition of human recombinant PRL-3
# Conditions: not given
# T1 sequence (O75365 whole entry): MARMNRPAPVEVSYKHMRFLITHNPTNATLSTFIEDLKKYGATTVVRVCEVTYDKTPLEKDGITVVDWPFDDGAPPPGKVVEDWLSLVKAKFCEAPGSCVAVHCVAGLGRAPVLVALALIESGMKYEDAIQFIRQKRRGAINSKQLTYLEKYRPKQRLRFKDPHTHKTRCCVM
row,IC50,Compound
1,9.5 µM,O=C1NC(=S)S/C1=C\c1cc(Br)ccc1O
2,53.6 µM,N=C(N)c1ccc(OCCCCCOc2ccc(C(=N)N)cc2)cc1 [PENTAMIDINE]

# Target: T1, Protein tyrosine phosphatase type IVA 3
# Test: Inhibition of human recombinant PRL-3 up to 50 uM
# Conditions: not given
row,Compound,inhibition
1,CN1C(=O)/C(=C/c2cc(Br)ccc2OCc2ccccc2)SC1=S,inactive
2,CS(=O)(=O)Oc1ccc(Br)cc1/C=C1\SC(=S)NC1=O,inactive
3,O=C1NC(=O)/C(=C/c2cc(Br)ccc2OCc2ccccc2)S1,inactive

# The remaining lines, values ahead:
row,inhibition,Compound
1,inactive,O=C1NC(=S)S/C1=C\c1ccccc1OCc1ccccc1
2,inactive,O=Cc1cc(Br)ccc1O
3,inactive,O=C1NC(=S)S/C1=C\c1cc(Br)ccc1OCc1cccnc1
